Assay results reported in publication PMC8317200 (Journal of medicinal chemistry, 2020).
Residues, ends and D or L forms follow the SMILES beside them. *: point of attachment. Adamantane1carbonyl = O=C(C12CC3CC(CC(C3)C1)C2)*; NH(1-Adamantyl) = C1C2CC3CC1CC(N*)(C2)C3; Fmoc = O=C(OCC1c2ccccc2-c2ccccc21)*; Benzoyl(4-F) = O=C(c1ccc(F)cc1)*; Pyrrolidide = C1CCN(*)C1; Cbz = O=C(OCc1ccccc1)*; OcHex = C1CCC(O*)CC1; Bz = O=C(c1ccccc1)*; OtBu = CC(C)(C)O*; OAll = C=CCO*; X1 = C#CCO*

T1: FGF14:Nav1.6 complex (Homo sapiens, UniProt Q92915)
T1 sequence (Q92915 1-252 isoform Q92915-2): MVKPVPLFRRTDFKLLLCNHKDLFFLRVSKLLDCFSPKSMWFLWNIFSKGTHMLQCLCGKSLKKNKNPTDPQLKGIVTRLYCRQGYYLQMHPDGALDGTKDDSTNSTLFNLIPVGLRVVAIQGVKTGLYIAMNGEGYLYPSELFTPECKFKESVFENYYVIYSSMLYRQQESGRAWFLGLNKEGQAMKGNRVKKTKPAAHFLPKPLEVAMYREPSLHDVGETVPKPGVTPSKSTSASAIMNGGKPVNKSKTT

T2: FGF14 (Homo sapiens, UniProt Q92915)
T2 sequence (Q92915 64-252 isoform Q92915-2): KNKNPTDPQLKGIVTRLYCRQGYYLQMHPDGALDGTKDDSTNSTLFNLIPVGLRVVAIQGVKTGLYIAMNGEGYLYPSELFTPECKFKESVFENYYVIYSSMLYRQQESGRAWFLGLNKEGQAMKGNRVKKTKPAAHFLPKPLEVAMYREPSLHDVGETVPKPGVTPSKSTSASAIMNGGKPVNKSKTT

T3: CLuc-FGF14-1b (human) (UniProt Q92915)
T3 sequence: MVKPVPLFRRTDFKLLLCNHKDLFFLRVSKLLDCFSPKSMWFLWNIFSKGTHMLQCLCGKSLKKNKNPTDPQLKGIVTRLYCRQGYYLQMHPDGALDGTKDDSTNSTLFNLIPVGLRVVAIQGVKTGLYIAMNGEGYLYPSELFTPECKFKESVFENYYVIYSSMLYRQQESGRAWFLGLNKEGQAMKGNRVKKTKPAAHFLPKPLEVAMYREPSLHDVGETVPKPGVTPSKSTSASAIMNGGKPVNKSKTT

B1: compound 23f (peptide)
peptide: Adamantane1carbonyl-PLE(OtBu)V-OEt
SMILES: CCOC(=O)[C@@H](NC(=O)[C@H](CCC(=O)OC(C)(C)C)NC(=O)[C@H](CC(C)C)NC(=O)[C@@H]1CCCN1C(=O)C12CC3CC(CC(C3)C1)C2)C(C)C
B2: compound 21a (peptide)
peptide: Adamantane1carbonyl-PLE(OtBu)V-OMe
SMILES: COC(=O)[C@@H](NC(=O)[C@H](CCC(=O)OC(C)(C)C)NC(=O)[C@H](CC(C)C)NC(=O)[C@@H]1CCCN1C(=O)C12CC3CC(CC(C3)C1)C2)C(C)C
B3: compound 23d (peptide)
peptide: Adamantane1carbonyl-PLE(OtBu)V-OtBu
SMILES: CC(C)C[C@H](NC(=O)[C@@H]1CCCN1C(=O)C12CC3CC(CC(C3)C1)C2)C(=O)N[C@@H](CCC(=O)OC(C)(C)C)C(=O)N[C@H](C(=O)OC(C)(C)C)C(C)C

The molecules below were run against T1, FGF14:Nav1.6 complex (assay: Split-luciferase complementation assay). Details: 50 μM screening.
Assay type: cell-based

`CC(C)C[C@H](NC(=O)[C@@H]1CCCN1C(=O)c1ccccc1)C(=O)N[C@@H](CCC(=O)OC(C)(C)C)C(=O)N[C@H](C(N)=O)C(C)C` [Compound 13a, tert-Butyl (S)-5-(((S)-1-amino-3-methyl-1-oxobutan-2-yl)amino)-4-((S)-2-((S)-1-benzoylpyrrolidine-2-carboxamido)-4-methylpentanamido)-5-oxopentanoate] (Bz-PLE(OtBu)V-NH2) was tested. Which “Inhibitory activity against FGF14:Nav1.6 complex assembly (in words)” value (“Inhibitory activity” for short) did it give?
The value was “did not show any inhibitory activity”.

For `CC(C)C[C@H](NC(=O)[C@@H]1CCCN1C(=O)OCc1ccccc1)C(=O)N[C@@H](CCC(=O)OC(C)(C)C)C(=O)N[C@H](C(=O)NC12CC3CC(CC(C3)C1)C2)C(C)C` [Compound 19h, Benzyl (S)-2-(((S)-1-(((S)-1-(((S)-1-(((3R,5R,7R)-adamantan-1-yl)amino)-3-methyl-1-oxobutan-2-yl)amino)-5-(tert-butoxy)-1,5-dioxopentan-2-yl)amino)-4-methyl-1-oxopentan-2-yl)carbamoyl)pyrrolidine-1-carboxylate] (Cbz-PLE(OtBu)V-{NH(1-Adamantyl)}), which “Inhibitory activity” value is on record?
Its value is “minimal inhibitory activity”.

For `COC(=O)[C@@H](NC(=O)[C@H](CCC(=O)OC(C)(C)C)NC(=O)[C@H](CC(C)C)NC(=O)[C@@H]1CCCN1C(=O)OCC1c2ccccc2-c2ccccc21)C(C)C` [Compound 21b, (9H-Fluoren-9-yl)methyl (S)-2-(((S)-1-(((S)-5-(tert-butoxy)-1-(((S)-1-methoxy-3-methyl-1-oxobutan-2-yl)amino)-1,5-dioxopentan-2-yl)amino)-4-methyl-1-oxopentan-2-yl)carbamoyl)pyrrolidine-1-carboxylate] (Fmoc-PLE(OtBu)V-OMe), which “Inhibitory activity” value is on record?
The value was “markedly reduced inhibitory activity”.

With `CC(C)C[C@H](NC(=O)[C@@H]1CCCN1C(=O)c1ccc(F)cc1)C(=O)N[C@@H](CCC(=O)OC(C)(C)C)C(=O)N[C@H](C(N)=O)C(C)C` [Compound 13f, tert-Butyl (S)-5-(((S)-1-amino-3-methyl-1-oxobutan-2-yl)amino)-4-((S)-2-((S)-1-(4-fluorobenzoyl)pyrrolidine-2-carboxamido)-4-methylpentanamido)-5-oxopentanoate] ({Benzoyl(4-F)}-PLE(OtBu)V-NH2) as the molecule, how does the “Inhibitory activity” value read?
Its value is “did not show any inhibitory activity”.

For `COC(=O)[C@@H](NC(=O)[C@H](CCC(=O)OC(C)(C)C)NC(=O)[C@H](CC(C)C)NC(=O)[C@@H]1CCCN1C(C)=O)C(C)C` [Compound 21c, tert-Butyl (S)-4-((S)-2-((S)-1-acetylpyrrolidine-2-carboxamido)-4-methylpentanamido)-5-(((S)-1-methoxy-3-methyl-1-oxobutan-2-yl)amino)-5-oxopentanoate] (Ac-PLE(OtBu)V-OMe), which “Inhibitory activity” value is on record?
The value was “markedly reduced inhibitory activity”.

Same assay, conditions: HEK293, 1 h, read-out: RLVs (%)

Which activity at 50 µM does the source give for `CC(C)C[C@H](NC(=O)[C@@H]1CCCN1C(=O)OCc1ccccc1)C(=O)N[C@H](C(N)=O)C(C)C` [Compound 31, Benzyl (S)-2-(((S)-1-(((S)-1-amino-3-methyl-1-oxobutan-2-yl)amino)-4-methyl-1-oxopentan-2-yl)carbamoyl)pyrrolidine-1-carboxylate] (Cbz-Pro-Leu-Val-NH2) here?
The activity at 50 µM was greater than 100%.

Which activity at 50 µM does the source give for `COC(=O)[C@@H](NC(=O)[C@H](CC(C)C)NC(=O)[C@@H]1CCCN1C(=O)OCc1ccccc1)C(C)C` [Compound 32, Benzyl (S)-2-(((S)-1-(((S)-1-methoxy-3-methyl-1-oxobutan-2-yl)amino)-4-methyl-1-oxopentan-2-yl)carbamoyl)pyrrolidine-1-carboxylate] (Cbz-Pro-Leu-Val-OMe) here?
Its activity at 50 µM is greater than 100%.

Which activity at 50 µM does the source give for `CC(C)C[C@H](NC(=O)[C@@H]1CCCN1C(=O)c1ccc(F)cc1)C(=O)N[C@@H](CCC(=O)OC(C)(C)C)C(=O)N[C@H](C(N)=O)C(C)C` [Compound 13f, tert-Butyl (S)-5-(((S)-1-amino-3-methyl-1-oxobutan-2-yl)amino)-4-((S)-2-((S)-1-(4-fluorobenzoyl)pyrrolidine-2-carboxamido)-4-methylpentanamido)-5-oxopentanoate] ({Benzoyl(4-F)}-PLE(OtBu)V-NH2) here?
The activity at 50 µM was 123 ± 3%.

Which activity at 50 µM does the source give for `COC(=O)CC[C@H](NC(=O)[C@H](CC(C)C)NC(=O)[C@@H]1CCCN1C(=O)OCc1ccccc1)C(=O)OC(C)(C)C` [Compound 30, 1-(tert-Butyl) 5-methyl ((benzyloxy)carbonyl)-L-prolyl-L-leucyl-L-glutamate] (Cbz-Pro-Leu-Glu(OMe)-OtBu) here?
Its activity at 50 µM is greater than 100%.

What follows are molecules tested against T2, FGF14 (assay: Surface plasmon resonance). Details: PTS and SPR.
Assay type: binding

With `C=CCOC(=O)[C@@H](NC(=O)[C@H](CCC(=O)OC(C)(C)C)NC(=O)[C@H](CC(C)C)NC(=O)[C@@H]1CCCN1C(=O)OCc1ccccc1)C(C)C` [Compound 19k, Benzyl (S)-2-(((S)-1-(((S)-1-(((S)-1-(allyloxy)-3-methyl-1-oxobutan-2-yl)amino)-5-(tert-butoxy)-1,5-dioxopentan-2-yl)amino)-4-methyl-1-oxopentan-2-yl)carbamoyl)pyrrolidine-1-carboxylate] (Cbz-PLE(OtBu)V-OAll) as the molecule, how does the “Binding by PTS and SPR (in words)” value read?
The value was “negligible binding”.

Same assay, conditions: read-out: koff FGF14

Which koff does the source give for `CC(C)C[C@H](NC(=O)[C@@H]1CCCN1C(=O)C12CC3CC(CC(C3)C1)C2)C(=O)N[C@@H](CCC(=O)OC(C)(C)C)C(=O)N[C@H](C(=O)OC(C)(C)C)C(C)C` [Compound 23d, tert-Butyl (4S)-4-((2S)-2-((2S)-1-((1R,3R)-adamantane-1-carbonyl)pyrrolidine-2-carboxamido)-4-methylpentanamido)-5-(((S)-1-(tert-butoxy)-3-methyl-1-oxobutan-2-yl)amino)-5-oxopentanoate] (Adamantane1carbonyl-PLE(OtBu)V-OtBu) here?
The koff was 0.0058 s⁻¹.

For `CC(C)C[C@H](NC(=O)[C@@H]1CCCN1C(=O)OCc1ccccc1)C(=O)N[C@@H](CCC(=O)OC(C)(C)C)C(=O)N[C@H](C(=O)N1CCCC1)C(C)C` [Compound 19e, Benzyl (S)-2-(((S)-1-(((S)-5-(tert-butoxy)-1-(((S)-3-methyl-1-oxo-1-(pyrrolidin-1-yl)butan-2-yl)amino)-1,5-dioxopentan-2-yl)amino)-4-methyl-1-oxopentan-2-yl)carbamoyl)pyrrolidine-1-carboxylate] (Cbz-PLE(OtBu)V-Pyrrolidide), which koff is on record?
The koff was 0.000991 s⁻¹.

`CC(C)C[C@H](NC(=O)[C@@H]1CCCN1C(=O)C12CC3CC(CC(C3)C1)C2)C(=O)N[C@@H](CCC(=O)OC(C)(C)C)C(=O)N[C@H](C(=O)OC1CCCCC1)C(C)C` [Compound 23e, tert-Butyl (4S)-4-((2S)-2-((2S)-1-((1R,3R)-adamantane-1-carbonyl)pyrrolidine-2-carboxamido)-4-methylpentanamido)-5-(((S)-1-(cyclohexyloxy)-3-methyl-1-oxobutan-2-yl)amino)-5-oxopentanoate] (Adamantane1carbonyl-PLE(OtBu)V-OcHex) was tested. Which koff did it give?
The koff was 0.0139 s⁻¹.

Same assay, conditions: read-out: kon FGF14

Which kon does the source give for `CC(C)C[C@H](NC(=O)[C@@H]1CCCN1C(=O)C12CC3CC(CC(C3)C1)C2)C(=O)N[C@@H](CCC(=O)OC(C)(C)C)C(=O)N[C@H](C(=O)OC(C)(C)C)C(C)C` [Compound 23d, tert-Butyl (4S)-4-((2S)-2-((2S)-1-((1R,3R)-adamantane-1-carbonyl)pyrrolidine-2-carboxamido)-4-methylpentanamido)-5-(((S)-1-(tert-butoxy)-3-methyl-1-oxobutan-2-yl)amino)-5-oxopentanoate] (Adamantane1carbonyl-PLE(OtBu)V-OtBu) here?
The kon was 1620 M⁻¹ s⁻¹.

`CC(C)C[C@H](NC(=O)[C@@H]1CCCN1C(=O)OCc1ccccc1)C(=O)N[C@@H](CCC(=O)OC(C)(C)C)C(=O)N[C@H](C(=O)N1CCCC1)C(C)C` [Compound 19e, Benzyl (S)-2-(((S)-1-(((S)-5-(tert-butoxy)-1-(((S)-3-methyl-1-oxo-1-(pyrrolidin-1-yl)butan-2-yl)amino)-1,5-dioxopentan-2-yl)amino)-4-methyl-1-oxopentan-2-yl)carbamoyl)pyrrolidine-1-carboxylate] (Cbz-PLE(OtBu)V-Pyrrolidide) was tested. Which kon did it give?
Its kon is 461 M⁻¹ s⁻¹.

With `C#CCOC(=O)[C@@H](NC(=O)[C@H](CCC(=O)OC(C)(C)C)NC(=O)[C@H](CC(C)C)NC(=O)[C@@H]1CCCN1C(=O)C12CC3CC(CC(C3)C1)C2)C(C)C` [Compound 23b, tert-Butyl (4S)-4-((2S)-2-((2S)-1-((1R,3R)-adamantane-1-carbonyl)pyrrolidine-2-carboxamido)-4-methylpentanamido)-5-(((S)-3-methyl-1-oxo-1-(prop-2-yn-1-yloxy)butan-2-yl)amino)-5-oxopentanoate] (Adamantane1carbonyl-PLE(OtBu)V-X1) as the molecule, how does the kon read?
Its kon is 25800 M⁻¹ s⁻¹.

`CC(C)C[C@H](NC(=O)[C@@H]1CCCN1C(=O)C12CC3CC(CC(C3)C1)C2)C(=O)N[C@@H](CCC(=O)OC(C)(C)C)C(=O)N[C@H](C(=O)OC1CCCCC1)C(C)C` [Compound 23e, tert-Butyl (4S)-4-((2S)-2-((2S)-1-((1R,3R)-adamantane-1-carbonyl)pyrrolidine-2-carboxamido)-4-methylpentanamido)-5-(((S)-1-(cyclohexyloxy)-3-methyl-1-oxobutan-2-yl)amino)-5-oxopentanoate] (Adamantane1carbonyl-PLE(OtBu)V-OcHex) was tested. Which kon did it give?
The kon was 7350 M⁻¹ s⁻¹.

What follows are molecules tested against T3, CLuc-FGF14-1b (human) (assay: split reporter). Details: not given.

What does the source list for Adamantane1carbonyl-PLE(OtBu)V-{O‑allyl} [compound 23a]?
IC50: 11.5 µM; efficacy (percent inhibition at the bottom plateau): 95.5%

B1 was tested. Which IC50 did it give?
Its IC50 is 13.3 µM.

What about the efficacy (percent inhibition at the bottom plateau) of the same molecule?
Its efficacy (percent inhibition at the bottom plateau) is 82.3%.

Which IC50 does the source give for Adamantane1carbonyl-PLE(OtBu)V-{O‑propargyl} [compound 23b] here?
The IC50 was 13.8 µM.

What about the efficacy (percent inhibition at the bottom plateau) of the same molecule?
The efficacy (percent inhibition at the bottom plateau) was 96.6%.

How did the IC50 turn out when B2 was run?
Its IC50 is 20.4 µM.

And the efficacy (percent inhibition at the bottom plateau)?
The efficacy (percent inhibition at the bottom plateau) was 96.1%.

How did the IC50 turn out when Adamantane1carbonyl-PLE(OtBu)V-{O‑cyclohexyl} [compound 23e] was run?
Its IC50 is 35.3 µM.

And the efficacy (percent inhibition at the bottom plateau)?
The efficacy (percent inhibition at the bottom plateau) was 69.9%.

Which IC50 does the source give for B3 here?
Its IC50 is 33.9 µM.

And the efficacy (percent inhibition at the bottom plateau)?
Its efficacy (percent inhibition at the bottom plateau) is 92.1%.

Adamantane1carbonyl-PLE(OtBu)V-{O‑propyl} [compound 23g] was tested. Which IC50 did it give?
The IC50 was 22.5 µM.

What about the efficacy (percent inhibition at the bottom plateau) of the same molecule?
The efficacy (percent inhibition at the bottom plateau) was 83.3%.
